Data set [1] in a line: (§1) Mean Tmax of acetylsalicylic acid concentration after administration of Genuine Bayer Aspirin Tablet at fasting condition in human. The data set is classed as ADME, organism-based. Also noted: dietary status Fasting, dose 650 mg, dosed compound id 2.46814e+06, dosed compound name Acetylsalicylic acid, regimen Single, route oral, sampling time 24 h, study doses 325/650 mg. Conditions: plasma, po, 650 mg.

A short description of data set [2]: (§2) Mean terminal elimination half-life of acetylsalicylic acid concentration after administration of Genuine Bayer Aspirin Tablet at fasting condition in human. The data set is classed as ADME, organism-based. Also noted: dietary status Fasting, dose 325 mg, dosed compound id 2.46814e+06, dosed compound name Acetylsalicylic acid, regimen Single, route oral, sampling time 24 h, study doses 325/650 mg. Particulars: plasma, po, 325 mg.

Data set [3] can be described thus: (§3) Mean Tlag of acetylsalicylic acid concentration after administration of Genuine Bayer Aspirin Tablet at fasting condition in human. Format: ADME, organism-based, Plasma. Also noted: dietary status Fasting, dose 650 mg, dosed compound id 2.46814e+06, dosed compound name Acetylsalicylic acid, regimen Single, route oral, sampling time 24 h, study doses 325/650 mg. Particulars: in vivo, po.

Data set [4] can be described thus: (§4) Mean Cmax of acetylsalicylic acid concentration after administration of Genuine Bayer Aspirin Tablet at fasting condition in human. Format: ADME, organism-based. Also on record: dietary status Fasting, dose 325 mg, dosed compound id 2.46814e+06, dosed compound name Acetylsalicylic acid, regimen Single, route oral, sampling time 24 h, study doses 325/650 mg. Conditions: plasma, po, 325 mg.

A short description of data set [5]: as §1. The data set is classed as ADME, organism-based. Also on record: dietary status Fasting, dose 325 mg, dosed compound id 2.46814e+06, dosed compound name Acetylsalicylic acid, regimen Single, route oral, sampling time 24 h, study doses 325/650 mg. Particulars: plasma, po, 325 mg.
Data set [6] can be described thus: (§5) Mean AUCinfinity of acetylsalicylic acid concentration after administration of Genuine Bayer Aspirin Tablet at fasting condition in human. Format: ADME, organism-based. Also noted: time infinity, dietary status Fasting, dose 650 mg, dosed compound id 2.46814e+06, dosed compound name Acetylsalicylic acid, regimen Single, route oral, sampling time 24 h, study doses 325/650 mg. Conditions: plasma, po, 650 mg, read-out: AUCinfinity (converted).

Data set [7] can be described thus: as §5. The data set is classed as ADME, organism-based. Also on record: time infinity, dietary status Fasting, dose 325 mg, dosed compound id 2.46814e+06, dosed compound name Acetylsalicylic acid, regimen Single, route oral, sampling time 24 h, study doses 325/650 mg. Particulars: plasma, po, 325 mg, read-out: AUCinfinity (converted).
The nature of data set [8]: as §4. The data set is classed as ADME, organism-based. Conditions: plasma, po, 650 mg. Also on record: dietary status Fasting, dose 650 mg, dosed compound id 2.46814e+06, dosed compound name Acetylsalicylic acid, regimen Single, route oral, sampling time 24 h, study doses 325/650 mg.
A short description of data set [9]: as §2. Conditions: plasma, po, 650 mg. Format: ADME, organism-based. Also on record: dietary status Fasting, dose 650 mg, dosed compound id 2.46814e+06, dosed compound name Acetylsalicylic acid, regimen Single, route oral, sampling time 24 h, study doses 325/650 mg.
Data set [10] can be described thus: as §3. Particulars: in vivo, po. Also on record: dietary status Fasting, dose 325 mg, dosed compound id 2.46814e+06, dosed compound name Acetylsalicylic acid, regimen Single, route oral, sampling time 24 h, study doses 325/650 mg. The data set is classed as ADME, organism-based, Plasma.
Data set [11] in a line: (§6) Mean AUC0-t of acetylsalicylic acid concentration after administration of Genuine Bayer Aspirin Tablet at fasting condition in human. Particulars: plasma, po, 650 mg. Also noted: dietary status Fasting, dose 650 mg, dosed compound id 2.46814e+06, dosed compound name Acetylsalicylic acid, regimen Single, route oral, sampling time 24 h, study doses 325/650 mg. Format: ADME, organism-based.

Data set [12] can be described thus: as §6. Format: ADME, organism-based. Also on record: dietary status Fasting, dose 325 mg, dosed compound id 2.46814e+06, dosed compound name Acetylsalicylic acid, regimen Single, route oral, sampling time 24 h, study doses 325/650 mg. Conditions: plasma, po, 325 mg.

Broadly, the Tmax is the time from dosing to the highest level. In general, half-life refers to the time in which the quantity being followed falls by half. Higher therefore signals slow loss. The term Cmax denotes the maximum level reached in the sampled fluid or tissue. For orientation: AUC(0-t) means exposure summed from dosing to a finite time, without extrapolation to infinity. Higher therefore signals more exposure. On to `CC(=O)Oc1ccccc1C(=O)O` [ASPIRIN], for which the Tmax in [1] was 40 min; in data set [5] it was 68 min. Besides, the half-life came out at 31 min in data set [2] and 55 min in data set [9]. Besides, the Tlag in data set [3] is 1 min; in data set [10], 2 min. Further, the Cmax in data set [4] is 2590 ng/mL; in data set [8], 5100 ng/mL. Moreover, the AUC(0-inf) in data set [6] is 7280 ng·h/mL; in [7] it was 3830 ng·h/mL. The area under the curve AUC(0-t) in data set [11] was 6880 ng·h/mL; in [12], 3520 ng·h/mL.
